Laboratory results reported in publication PMC11472313, “Development of Fragment-Based Inhibitors of the Bacterial Deacetylase LpxC with Low Nanomolar Activity” (Journal of Medicinal Chemistry, 2024).
Values joined by “and” are separate entries in the source; they are usually repeats but may differ in a detail not shown here. Equal values may be shown once.

Key:
LasB = target: T1, LasB (Pseudomonas aeruginosa, UniProt Q02RJ6); assay: FRET-based LasB in vitro inhibition assay; format: biochemical, P. aeruginosa PA14; settings: for inhibition at 20 µM: read-out: LasB Inhibition at 20 μM
T1 construct: The elastase LasB of P. aeruginosa is a secreted metalloprotease; endogenous in cells; host or cells: P. aeruginosa PA14 culture supernatant
T1 sequence (Q02RJ6 198-498): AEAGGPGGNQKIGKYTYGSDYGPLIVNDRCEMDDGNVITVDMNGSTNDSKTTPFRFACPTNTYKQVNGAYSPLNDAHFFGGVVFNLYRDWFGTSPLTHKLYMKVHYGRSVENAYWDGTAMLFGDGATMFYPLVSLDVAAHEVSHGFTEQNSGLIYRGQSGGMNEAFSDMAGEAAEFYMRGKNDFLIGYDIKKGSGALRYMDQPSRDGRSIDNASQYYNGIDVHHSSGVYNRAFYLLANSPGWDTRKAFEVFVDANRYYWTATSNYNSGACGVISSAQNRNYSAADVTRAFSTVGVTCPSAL
Procedure: Purification of LasB from P. aeruginosa PA14 supernatant and the subsequent performance of the FRET-based in vitro inhibition assay was performed as described previously.[66] The TACE (ADAM-17) inhibitor screening kit was purchased from Sigma-Aldrich (Saint Louis, MO). MMPs 1–3 along with the SensoLyte 520 Generic MMP Activity Kit Fluorimetric were purchased from AnaSpec (Fremont, CA, USA). The assays were performed according to the guidelines of the respective manufacturer. Fluorescence signals were measured using a CLARIOstar plate reader (BMG Labtech, Ortenberg, Germany).

P. aeruginosa LpxC = target: T2, P. aeruginosa LpxC (Pseudomonas aeruginosa, UniProt P47205); assay: LC–MS/MS-based P. aeruginosa LpxC enzyme inhibition assay; format: biochemical; settings: from IC50 via Cheng–Prusoff
T2 construct: made in house; host or cells: E. coli BL21(DE3)
T2 sequence (P47205 whole entry): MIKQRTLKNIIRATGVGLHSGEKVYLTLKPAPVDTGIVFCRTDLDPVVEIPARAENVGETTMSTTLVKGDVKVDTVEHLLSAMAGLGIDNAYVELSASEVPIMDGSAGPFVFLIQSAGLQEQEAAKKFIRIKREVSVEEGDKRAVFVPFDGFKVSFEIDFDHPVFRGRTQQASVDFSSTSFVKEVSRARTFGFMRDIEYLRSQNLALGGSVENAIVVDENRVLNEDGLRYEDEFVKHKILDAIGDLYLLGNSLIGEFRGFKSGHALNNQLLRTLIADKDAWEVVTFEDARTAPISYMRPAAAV
Description: As Pseudomonas aeruginosa is one of the so-called ESKAPE pathogens,[56] being the leading cause of nosocomial infections throughout the world, and carbapenem-resistant P. aeruginosa strains were assigned the highest priority (priority 1: critical) within the “WHO priority pathogens list for R&D of new antibiotics” (WHO 2017),[57] new antibacterial agents combating these bacteria are urgently required. Thus, our newly developed LpxC inhibitors should be tested for inhibitory activity toward P. aeruginosa LpxC, which shares 57% sequence identity with E. coli LpxC.[28] Therefore, a liquid chromatography with tandem mass spectrometry (LC–MS/MS)-based P. aeruginosa LpxC assay was established. […] After incubation and subsequent termination of the enzymatic reaction, the samples were subjected to LC–MS/MS analysis. Following the chromatographic separation of substrate 1 and deacetylated product 2, the eluted compounds were ionized and subjected to fragmentation. Three multiple reaction monitoring (MRM) transitions were detected per compound [precursor ions: m/z (substrate 1) 832; m/z (deacetylated product 2) 790; product ions: m/z (product 1) 385, collision energy = −60 V; m/z (product 2) 159, collision energy = −80 V; m/z (product 3) 79, collision energy = −140 V]. The MRM transitions 832 → 79 of substrate 1 and 790 → 79 of product 2 were used as quantifiers; the other mass transitions were used as qualifiers.
The protocol of the LC–MS/MS-based P. aeruginosa LpxC assay was based on the E. coli LpxC C63A enzyme assay. Compared to the fluorescence-based enzyme assay, the substrate was diluted 1:10 and the inhibitors were diluted 1:4.
The wells in a black, nonbinding, 96-well fluorescence microplate (Greiner Bio One, Frickenhausen) were filled with 93 μL of 2.69 μM UDP-3-O-[(R)-3-hydroxymyristoyl]-N-acetylglucosamine in assay buffer [50 mM KH2PO4/K2HPO4 (pH = 7.5), 80 μM dithiothreitol, 0.02% Brij 35]. In order to assay the inhibitors at final concentrations from 5 nM up to 5 μM, 2 μL of a respective dilution of the compounds in DMSO were added. The addition of 5 μL of a solution of purified P. aeruginosa LpxC (5 μg mL^–1) in assay buffer led to final concentrations of 2.5 μM UDP-3-O-[(R)-3-hydroxymyristoyl]-N-acetylglucosamine, 7.5 nM P. aeruginosa LpxC, 2% DMSO, and from 5 nM up to 5 μM inhibitor. The microplate was incubated for 30 min at 37 °C in a plate shaker. Then, the biochemical reaction was stopped by adding 40 μL of 0.625 M hydrochloric acid. The reaction mixtures were further incubated for 10 min, sealed, and stored at −80 °C until analysis.
LC–MS/MS-Analysis. The reaction mixtures were separated by ultrahigh performance liquid-chromatography (1290 II Infinity UHPLC, Agilent Technologies), and the eluted compounds were analyzed by mass spectrometry using electrospray ionization in negative ion mode with a triple quadrupole linear ion trap mass spectrometer (QTRAP 5500, AB Sciex LLC).
To analyze the eluted compounds by mass spectrometry, a MRM method was applied. The specific parameters of this method are given in Table S2 (Supporting Information). After detection and selection of the precursor ions (1: m/z 832; 2: m/z 790), both analytes were fragmented, leading to three identical product ions [m/z (product 1) 385, collision energy = −60 V; m/z (product 2) 159, collision energy = −80 V; m/z (product 3) 79, collision energy = −140 V]. The mass transitions 832 → 79 (substrate 1) and 790 → 79 (product 2) were used as quantifiers; the other mass transitions were used as qualifiers. The ratio between substrate 1 and product 2 was quantified by comparing the peak areas of the quantifiers. The percentual inhibition caused by each inhibitor concentration was determined with respect to the amount of the product formed in the noninhibited reaction after 30 min.
Each assay was performed at least two times on separate days. […]

| SMILES | IC50 (LasB) [nM] | inhibition at 20 µM (LasB) [%] | Ki (P. aeruginosa LpxC) | LasB Inhibition at 20 μM (LasB) |
| --- | --- | --- | --- | --- |
| O=C(NO)[C@H](COCc1ccccc1)OCc1ccc(C#Cc2ccc(CN3CCOCC3)cc2)cc1 [(S)-11a, (S)-3-(Benzyloxy)-N-hydroxy-2-[(4-{[4-(morpholinomethyl)phenyl]ethynyl}benzyl)oxy]propanamide] | 14300 ± 900 | 62.3 ± 3.2 | 725 ± 335 nM |  |
| O=C(NO)[C@H](CNCc1ccccc1)OCc1ccc(C#Cc2ccc(CN3CCOCC3)cc2)cc1 [(S)-12a, (S)-3-(Benzylamino)-N-hydroxy-2-[(4-{[4-(morpholinomethyl)phenyl]ethynyl}benzyl)oxy]propanamide] | 21900 ± 1200 | 57 ± 2 | 862 ± 70 nM |  |
| O=C(NC[C@H](OCc1ccc(C#Cc2ccc(CN3CCOCC3)cc2)cc1)C(=O)NO)c1ccccc1 [(S)-13a, (S)-N-{3-(Hydroxyamino)-2-[(4-{[4-(morpholinomethyl)phenyl]ethynyl}benzyl)oxy]-3-oxopropyl}benzamide] |  | 20.1 ± 3.9 | 58.2 ± 0.1 nM |  |
| O=C(NC[C@H](OCc1ccc(C#Cc2ccc(CN3CCOCC3)cc2)cc1)C(=O)NO)c1cccc(-c2ccccc2)c1 [(S)-13c] |  | < 10 | 149 ± 14 nM | little to no inhibitory activity |
| O=C(NC[C@H](OCc1ccc(C#Cc2ccc(CN3CCOCC3)cc2)cc1)C(=O)NO)c1ccc(Oc2ccccc2)cc1 [(S)-13d] |  | < 10 | 196 ± 18 nM | little to no inhibitory activity |
| O=C(NC[C@H](OCc1ccc(C#Cc2ccc(CN3CCOCC3)cc2)cc1)C(=O)NO)c1ccc2ccccc2n1 [(S)-13e] |  | 11.6 ± 1.9 | 168 ± 8 nM | little to no inhibitory activity |
| O=C(NC[C@H](OCc1ccc(C#Cc2ccc(CN3CCOCC3)cc2)cc1)C(=O)NO)c1cnc2ccccc2c1 [(S)-13f] |  | < 10 | 91.1 ± 17.5 nM | little to no inhibitory activity |
| O=C(NC[C@H](OCc1ccc(C#Cc2ccc(CN3CCOCC3)cc2)cc1)C(=O)NO)c1cc2ccccc2[nH]1 [(S)-13g] |  | < 10 | 46 ± 16.4 nM | little to no inhibitory activity |
| O=C(NC[C@H](OCc1ccc(C#Cc2ccc(CN3CCOCC3)cc2)cc1)C(=O)NO)c1c[nH]c2ccccc12 [(S)-13h] |  | 25.2 ± 5.6 | 5.91 ± 1.47 nM | little to no inhibitory activity |
| O=C(NC[C@H](OCc1ccc(C#Cc2ccc(CN3CCOCC3)cc2)cc1)C(=O)NO)c1cccc2[nH]ccc12 [(S)-13i] |  | 27.6 ± 2.9 | 10.3 ± 2 nM | little to no inhibitory activity |
| O=C(NC[C@H](OCc1ccc(C#Cc2ccc(CN3CCOCC3)cc2)cc1)C(=O)NO)c1ccc2[nH]ccc2c1 [(S)-13j] |  | < 10 | 5.6 nM and 5.58 nM | little to no inhibitory activity |
| O=C(NC[C@H](OCc1ccc(C#Cc2ccc(CN3CCOCC3)cc2)cc1)C(=O)NO)c1ccc[nH]1 [(S)-13k] |  | 22.4 ± 3.1 | 29 ± 7.6 nM |  |
| O=C(NC[C@H](OCc1ccc(C#Cc2ccc(CN3CCOCC3)cc2)cc1)C(=O)NO)c1cc[nH]n1 [(S)-13l] |  | 11.6 ± 0.7 | 18 ± 2.9 nM | little to no inhibitory activity |
| O=C(NC[C@H](OCc1ccc(C#Cc2ccc(CN3CCOCC3)cc2)cc1)C(=O)NO)c1cc(-c2ccccc2)[nH]n1 [(S)-13m] |  | < 10 | 41.9 ± 18.5 nM | little to no inhibitory activity |
| Cc1noc(C)c1C(=O)NC[C@H](OCc1ccc(C#Cc2ccc(CN3CCOCC3)cc2)cc1)C(=O)NO [(S)-13n] | 1800 ± 150 | 92.7 ± 0.7 | 80.4 ± 9.7 nM |  |
| O=C(NO)[C@H](CN(Cc1ccccc1)Cc1ccccc1)OCc1ccc(C#Cc2ccc(CN3CCOCC3)cc2)cc1 [(S)-37, (S)-3-(Dibenzylamino)-N-hydroxy-2-[(4-{[4-(morpholinomethyl)phenyl]ethynyl}benzyl)oxy]propanamide] |  | < 10 | > 3250 nM | no inhibitory activity |
